According to patent publication US9695155B2, “Herbicidal substituted pyrimidinyloxy benzene compounds” (E. I. DU PONT DE NEMOURS AND COMPANY, priority 2013, dated 2017):

Assays:
[1] = test system: barnyardgrass; test: Test A preemergence; assay type: in vivo, Echinochloa crus-galli
Text: (§1) Seeds of plant species selected from barnyardgrass (Echinochloa crus-galli), kochia (Kochia scoparia), ragweed (common ragweed, Ambrosia elatior), Italian ryegrass (Lolium multiflorum), large (Lg) crabgrass (Digitaria sanguinalis), giant foxtail (Setaria faberii), morningglory (Ipomoea spp.), pigweed (Amaranthus retroflexus), velvetleaf (Abutilon theophrasti), wheat (Triticum aestivum), and corn (Zea mays) were planted into a blend of loam soil and sand and treated preemergence with a directed soil spray using test chemicals formulated in a non-phytotoxic solvent mixture which included a surfactant.
(§2) At the same time, plants selected from these crop and weed species and also blackgrass (Alopecurus myosuroides), and galium (catchweed bedstraw, Galium aparine) were planted in pots containing the same blend of loam soil and sand and treated with postemergence applications of test chemicals formulated in the same manner. Plants ranged in height from 2 to 10 cm and were in the one- to two-leaf stage for the postemergence treatment. Treated plants and untreated controls were maintained in a greenhouse for approximately 10 days, after which time all treated plants were compared to untreated controls and visually evaluated for injury. Plant response ratings, summarized in Table A, are based on a 0 to 100 scale where 0 is no effect and 100 is complete control. A dash (-) response means no test result.

[2] = test system: large (Lg) crabgrass; test: Test A preemergence; assay type: in vivo, Digitaria sanguinalis
Text: as §1, §2

[3] = test system: giant foxtail; test: Test A preemergence; assay type: in vivo, Setaria faberii
Text: as §1, §2

[4] = test system: morningglory; test: Test A preemergence; assay type: in vivo, Ipomoea spp.
Outline: (§3)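 Pre- and postemergence greenhouse screen. Soil: loam + sand. Spray carrier: solvent mixture, non-phytotoxic, with surfactant. Post timing at 1–2 leaves, height 2–10 cm. Readout: visual injury on a 0–100 scale roughly 10 days after application, untreated plants as reference.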

[5] = test system: pigweed; test: Test A preemergence; assay type: in vivo, Amaranthus retroflexus
Outline: as §3

[6] = test system: velvetleaf; test: Test A preemergence; assay type: in vivo, Abutilon theophrasti
Outline: as §3

[7] = test system: wheat; test: Test A preemergence; assay type: in vivo, Triticum aestivum
Text: as §1, §2

[8] = test system: corn; test: Test A preemergence; assay type: in vivo, Zea mays
Outline: as §3

[9] = test system: barnyardgrass; test: Test A postemergence; assay type: in vivo, Echinochloa crus-galli
Text: as §1, §2

[10] = test system: large (Lg) crabgrass; test: Test A postemergence; assay type: in vivo, Digitaria sanguinalis
Text: as §1, §2

[11] = test system: giant foxtail; test: Test A postemergence; assay type: in vivo, Setaria faberii
Outline: as §3

[12] = test system: morningglory; test: Test A postemergence; assay type: in vivo, Ipomoea spp.
Text: as §1, §2

[13] = test system: pigweed; test: Test A postemergence; assay type: in vivo, Amaranthus retroflexus
Text: as §1, §2

[14] = test system: velvetleaf; test: Test A postemergence; assay type: in vivo, Abutilon theophrasti
Text: as §1, §2

[15] = test system: wheat; test: Test A postemergence; assay type: in vivo, Triticum aestivum
Outline: as §3

[16] = test system: corn; test: Test A postemergence; assay type: in vivo, Zea mays
Outline: as §3

[17] = test system: rice; test: Test B flooded paddy test; assay type: in vivo, Oryza sativa; details: Flood, 250 g ai/ha; 0 to 100 scale where 0 is no effect and 100 is complete control
Procedure: (§4) Plant species in the flooded paddy test selected from rice (Oryza sativa), sedge, umbrella (small-flower umbrella sedge, Cyperus difformis), (Heteranthera limosa), and barnyardgrass (Echinochloa crus-galli) were grown to the 2-leaf stage for testing. At time of treatment, test pots were flooded to 3 cm above the soil surface, treated by application of test compounds directly to the paddy water, and then maintained at that water depth for the duration of the test. Treated plants and controls were maintained in a greenhouse for 13 to 15 days, after which time all species were compared to controls and visually evaluated. Plant response ratings, summarized in Table B, are based on a scale of 0 to 100 where 0 is no effect and 100 is complete control. A dash (-) response means no test result.

[18] = test system: sedge, umbrella; test: Test B flooded paddy test; assay type: in vivo, Cyperus difformis; details: Flood, 250 g ai/ha; 0 to 100 scale where 0 is no effect and 100 is complete control
Procedure: as §4

[19] = test system: Heteranthera limosa; test: Test B flooded paddy test; assay type: in vivo; details: Flood, 250 g ai/ha; 0 to 100 scale where 0 is no effect and 100 is complete control
Procedure: as §4

[20] = test system: barnyardgrass; test: Test B flooded paddy test; assay type: in vivo, Echinochloa crus-galli; details: Flood, 250 g ai/ha; 0 to 100 scale where 0 is no effect and 100 is complete control
Procedure: as §4

[21] = 125 g ai/ha, 0 to 100 scale where 0 is no effect and 100 is complete control
[22] = 500 g ai/ha, 0 to 100 scale, 0 no effect, 100 complete control, approx. 10 days
[23] = 500 g ai/ha, 0 to 100 scale, 0 no effect, 100 complete control

FC(F)(F)c1ccn(-c2ccccc2Oc2ncc(Br)cn2)n1 [Compound 1]
10: Plant response rating, Barnyardgrass [9, 21] | Plant response rating, Foxtail, Giant [11, 21] | Plant response rating, Corn [16, 23]
0: Morningglory plant response rating [4, 21] | Morningglory plant response rating [4, 22] | Velvetleaf plant response rating [6, 21] | Wheat plant response rating [7, 21] | Wheat plant response rating [7, 22] | Corn plant response rating [8, 21] | Corn plant response rating [8, 22] | Plant response rating, Morningglory [12, 21] | Plant response rating, Wheat [15, 21] | Plant response rating, Wheat [15, 23] | Plant response rating, Corn [16, 21] | Plant response rating, Rice [17] | Plant response rating, Sedge, Umbrella [18] | Plant response rating, Ducksalad [19] | Plant response rating, Barnyardgrass [20]
60: Foxtail, Giant plant response rating [3, 21] | Pigweed plant response rating [5, 21] | Plant response rating, Foxtail, Giant [11, 23]
20: Barnyardgrass plant response rating [1, 21] | Velvetleaf plant response rating [6, 22] | Plant response rating, Crabgrass, Large [10, 21] | Plant response rating, Morningglory [12, 23] | Plant response rating, Velvetleaf [14, 21]
70: Barnyardgrass plant response rating [1, 22] | Plant response rating, Velvetleaf [14, 23]
30: Plant response rating, Barnyardgrass [9, 23]
100: Crabgrass, Large plant response rating [2, 22] | Foxtail, Giant plant response rating [3, 22] | Pigweed plant response rating [5, 22] | Plant response rating, Pigweed [13, 23]
50: Crabgrass, Large plant response rating [2, 21] | Plant response rating, Crabgrass, Large [10, 23] | Plant response rating, Pigweed [13, 21]

Cc1ccn(-c2ccccc2Oc2ncc(Cl)cn2)n1 [Compound 36]
10: Plant response rating, Crabgrass, Large [10, 23]
20: Foxtail, Giant plant response rating [3, 22] | Pigweed plant response rating [5, 22] | Velvetleaf plant response rating [6, 22] | Plant response rating, Pigweed [13, 23] | Plant response rating, Velvetleaf [14, 21]
0: Plant response rating, Barnyardgrass [1, 21] | Barnyardgrass plant response rating [1, 22] | Plant response rating, Crabgrass, Large [2, 21] | Plant response rating, Foxtail, Giant [3, 21] | Plant response rating, Pigweed [5, 21] | Plant response rating, Velvetleaf [6, 21] | Plant response rating, Wheat [7, 21] | Wheat plant response rating [7, 22] | Plant response rating, Corn [8, 21] | Corn plant response rating [8, 22] | Plant response rating, Barnyardgrass [9, 21] | Plant response rating, Barnyardgrass [9, 23] | Plant response rating, Crabgrass, Large [10, 21] | Plant response rating, Foxtail, Giant [11, 21] | Plant response rating, Foxtail, Giant [11, 23] | Plant response rating, Pigweed [13, 21] | Plant response rating, Wheat [15, 21] | Plant response rating, Wheat [15, 23] | Plant response rating, Corn [16, 21] | Plant response rating, Corn [16, 23] | Plant response rating, Rice [17] | Plant response rating, Sedge, Umbrella [18] | Plant response rating, Ducksalad [19] | Plant response rating, Barnyardgrass [20]
70: Crabgrass, Large plant response rating [2, 22] | Plant response rating, Velvetleaf [14, 23]

Cc1nn(-c2ccccc2Oc2ncc(Cl)cn2)cc1Br [Compound 37]
40: Plant response rating, Velvetleaf [14, 23]
80: Crabgrass, Large plant response rating [2, 22]
30: Foxtail, Giant plant response rating [3, 22]
20: Plant response rating, Velvetleaf [14, 21]
0: Plant response rating, Barnyardgrass [1, 21] | Plant response rating, Morningglory [4, 21] | Morningglory plant response rating [4, 22] | Plant response rating, Pigweed [5, 21] | Pigweed plant response rating [5, 22] | Plant response rating, Wheat [7, 21] | Wheat plant response rating [7, 22] | Plant response rating, Corn [8, 21] | Corn plant response rating [8, 22] | Plant response rating, Barnyardgrass [9, 21] | Plant response rating, Barnyardgrass [9, 23] | Plant response rating, Crabgrass, Large [10, 21] | Plant response rating, Crabgrass, Large [10, 23] | Plant response rating, Foxtail, Giant [11, 21] | Plant response rating, Foxtail, Giant [11, 23] | Plant response rating, Pigweed [13, 21] | Plant response rating, Wheat [15, 21] | Plant response rating, Wheat [15, 23] | Plant response rating, Corn [16, 21] | Plant response rating, Corn [16, 23] | Plant response rating, Rice [17] | Plant response rating, Sedge, Umbrella [18] | Plant response rating, Ducksalad [19] | Plant response rating, Barnyardgrass [20]
10: Barnyardgrass plant response rating [1, 22] | Plant response rating, Crabgrass, Large [2, 21] | Plant response rating, Foxtail, Giant [3, 21] | Plant response rating, Velvetleaf [6, 21] | Velvetleaf plant response rating [6, 22] | Plant response rating, Pigweed [13, 23]

Cc1nn(-c2ccccc2Oc2ncc(Cl)cn2)cc1Cl [Compound 38]
20: Foxtail, Giant plant response rating [3, 22] | Plant response rating, Velvetleaf [14, 23]
0: Plant response rating, Barnyardgrass [1, 21] | Barnyardgrass plant response rating [1, 22] | Plant response rating, Crabgrass, Large [2, 21] | Plant response rating, Foxtail, Giant [3, 21] | Plant response rating, Morningglory [4, 21] | Morningglory plant response rating [4, 22] | Plant response rating, Pigweed [5, 21] | Pigweed plant response rating [5, 22] | Plant response rating, Velvetleaf [6, 21] | Plant response rating, Wheat [7, 21] | Wheat plant response rating [7, 22] | Plant response rating, Corn [8, 21] | Corn plant response rating [8, 22] | Plant response rating, Barnyardgrass [9, 21] | Plant response rating, Barnyardgrass [9, 23] | Plant response rating, Crabgrass, Large [10, 21] | Plant response rating, Foxtail, Giant [11, 21] | Plant response rating, Foxtail, Giant [11, 23] | Plant response rating, Pigweed [13, 21] | Plant response rating, Wheat [15, 21] | Plant response rating, Wheat [15, 23] | Plant response rating, Corn [16, 21] | Plant response rating, Corn [16, 23] | Plant response rating, Rice [17] | Plant response rating, Ducksalad [19] | Plant response rating, Barnyardgrass [20]
40: Crabgrass, Large plant response rating [2, 22]
10: Velvetleaf plant response rating [6, 22] | Plant response rating, Crabgrass, Large [10, 23] | Plant response rating, Pigweed [13, 23] | Plant response rating, Velvetleaf [14, 21]
30: Plant response rating, Sedge, Umbrella [18]

Cc1nn(-c2ccccc2Oc2ncc(Cl)cn2)cc1Cl [Compound 39]
30: Plant response rating, Velvetleaf [14, 23] | Plant response rating, Sedge, Umbrella [18]
50: Foxtail, Giant plant response rating [3, 22] | Plant response rating, Ducksalad [19]
90: Crabgrass, Large plant response rating [2, 22]
20: Velvetleaf plant response rating [6, 22] | Plant response rating, Velvetleaf [14, 21]
40: Plant response rating, Pigweed [13, 23]
10: Barnyardgrass plant response rating [1, 22] | Plant response rating, Crabgrass, Large [2, 21] | Plant response rating, Foxtail, Giant [3, 21] | Plant response rating, Velvetleaf [6, 21] | Plant response rating, Crabgrass, Large [10, 23] | Plant response rating, Pigweed [13, 21] | Plant response rating, Corn [16, 23]
0: Plant response rating, Barnyardgrass [1, 21] | Plant response rating, Morningglory [4, 21] | Morningglory plant response rating [4, 22] | Plant response rating, Pigweed [5, 21] | Pigweed plant response rating [5, 22] | Plant response rating, Wheat [7, 21] | Wheat plant response rating [7, 22] | Plant response rating, Corn [8, 21] | Corn plant response rating [8, 22] | Plant response rating, Barnyardgrass [9, 21] | Plant response rating, Barnyardgrass [9, 23] | Plant response rating, Crabgrass, Large [10, 21] | Plant response rating, Foxtail, Giant [11, 21] | Plant response rating, Foxtail, Giant [11, 23] | Plant response rating, Wheat [15, 21] | Plant response rating, Wheat [15, 23] | Plant response rating, Corn [16, 21] | Plant response rating, Rice [17] | Plant response rating, Barnyardgrass [20]
